Test results as given in paper PMC7221592, “Synthesis and Molecular Modelling Studies of New 1,3-Diaryl-5-Oxo-Proline Derivatives as Endothelin Receptor Ligands” (Molecules, 2020).
Square brackets hold non-standard residues; d marks the D form. Peptide text beside a SMILES is read from it.

Biological target: T1, ETA receptor (ETAR) (Homo sapiens, UniProt P25101)
T1 construct: gene EDNRA
T1 sequence (P25101 21-427): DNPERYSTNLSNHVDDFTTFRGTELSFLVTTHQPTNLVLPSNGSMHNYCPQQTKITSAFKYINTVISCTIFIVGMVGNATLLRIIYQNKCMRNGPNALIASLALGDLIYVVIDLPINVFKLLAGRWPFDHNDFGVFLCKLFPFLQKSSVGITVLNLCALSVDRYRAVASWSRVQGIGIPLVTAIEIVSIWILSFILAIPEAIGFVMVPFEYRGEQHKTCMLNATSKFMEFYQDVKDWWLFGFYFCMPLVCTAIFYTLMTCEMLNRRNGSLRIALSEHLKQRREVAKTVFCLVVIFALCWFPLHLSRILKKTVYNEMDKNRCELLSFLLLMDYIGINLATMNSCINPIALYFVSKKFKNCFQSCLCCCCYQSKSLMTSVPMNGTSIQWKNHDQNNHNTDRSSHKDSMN
Assay: […]ET-1 radioligand displacement, recombinant human ETA in CHO-K1 cells
Format: cell-based
Conditions: read-out: ETAh 10^-5 M ^a

`CC(C)C[C@@H]1NC(=O)[C@@H](C(C)C)NC(=O)[C@@H]2CCCN2C(=O)[C@@H](CC(=O)O)NC(=O)[C@@H](Cc2c[nH]c3ccccc23)NC1=O` [BQ-123] (cyclo(L[dW][dD]P[dV])) showed a Ki of 5.4 ± 0.8 nM.
For `COc1ccc(CN2C(=O)C[C@H](c3ccc4c(c3)OCO4)[C@H]2C(=O)O)cc1` (racemic) [31h, (±)-trans 3-(1,3-Benzodioxol-5-yl)-1-[(4-methoxyphenyl)methyl]-5-oxo-proline], the Ki was 3300 ± 1100 nM.
